Measured values reported in PubChem BioAssay (NCI).
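Where inhibition never reached the appropriate level, the endpoint shown equals the highest concentration tested. Otherwise, values were interpolated linearly from a five-concentration, 48-hour dose response in 96-well plates. At the GI50, growth is halved. At the TGI there is no net growth.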

How the values were obtained:
Test in all cases: NCI anticancer screen, dose series, 48 h
[1] = system: A498 renal
[2] = system: CAKI-1 renal
[3] = system: CCRF-CEM leukemia
[4] = system: HCT-116 colon
[5] = system: HOP-62 NSCLC
[6] = system: MALME-3M melanoma
[7] = system: MDA-MB-231 breast
[8] = system: PC-3 prostate
[9] = system: RPMI-8226 leukemia
[10] = system: SF-539 CNS
[11] = system: U251 CNS

Compound	TGI [1] [µM]	TGI [2] [µM]	TGI [3] [µM]	TGI [4] [µM]	TGI [5] [µM]	TGI [6] [µM]	TGI [7] [µM]	TGI [8] [µM]	TGI [9] [µM]	TGI [10] [µM]	TGI [11] [µM]	GI50 [9] [µM]
CC(C)(C)N1NC1C1NN1C(C)(C)C (stereo unspecified)	> 100	> 100	> 100	> 100	> 100	> 100	> 100	> 100	> 100	> 100	> 100	–
[N-]=[N+]=Nc1ccc2c(c1)Sc1ccccc1N2CCCCCl	> 100	> 100	> 100	> 100	> 100	> 100	> 100	> 100	> 100	> 100	> 100	–
COC(=N)C12C(N)=NC(OC)(OC)C1(C#N)C21C(=O)N(c2ccccc2)N=C1C (stereo unspecified)	> 100	> 100	> 100	> 100	> 100	> 100	> 100	> 100	> 100	> 100	> 100	–
CC(=O)c1ccc2c(c1)oc(=O)n2CCN1CCCCC1	> 100	> 100	> 100	> 100	> 100	> 100	> 100	> 100	> 100	> 100	> 100	–
CCC(=O)COc1ccc(NC(NC(=O)C(C(F)(F)F)C(F)(F)F)(C(F)(F)F)C(F)(F)F)cc1	> 100	94.1	61.8	67.6	> 100	77.7	54.2	> 100	52.8	55.2	> 100	–
O=C1CC2(CCC(O)(c3ccc(Cl)cc3)C(C(=O)c3ccc(Cl)cc3)C2)C(=O)c2ccccc2N1 (stereo unspecified)	52.6	> 40.9	26.6	> 100	> 100	> 68.4	30.6	> 100	> 100	11.2	> 31.9	–
c1ccc(CCN(Cc2nc3ccccc3[nH]2)Cc2nc3ccccc3[nH]2)cc1	30.6	12.5	> 100	17	24.9	45.7	31.8	36.7	11.6	38.9	19.8	–
CC1NC(/C(=C/c2ccccc2O)NC(=O)c2ccccc2)OC1=O (stereo unspecified)	> 50	> 50	> 50	> 50	> 50	> 50	> 50	> 50	> 50	48	> 50	–
Cc1ccc(S(=O)(=O)NNC(=S)Nc2cccc3ccccc23)cc1	99.5	> 100	> 100	> 100	> 100	> 100	> 100	> 100	> 100	> 100	> 100	–
O=[N+]([O-])c1cccc2nccc(NCC(O)CO)c12 (stereo unspecified)	19.3	35.8	> 89.9	26.8	33.6	28.4	45	38.5	61.2	36.9	32.6	–
CC(=O)CCC[C@@H](C)[C@@H]1O[C@H]([C@@]2(C)CCC(=O)O2)C[C@H]2C(CSc3ccccc3)C(=O)O[C@@H]12 (stereo partly specified)	> 88.9	27.2	24.9	31.2	> 100	> 42.5	37.3	47.6	52.1	36.9	36.3	–
Cc1ccc(S(=O)(=O)N2CCCCN(S(=O)(=O)c3ccc(C)cc3)Cc3ccccc3OCCOCCOc3c4cccc3Cc3cccc5c3OCCOCCOc3ccccc3CN(S(=O)(=O)c3ccc(C)cc3)CCCN(S(=O)(=O)c3ccc(C)cc3)Cc3ccccc3OCCOCCOc3c(cccc3C4)Cc3cccc(c3OCCOCCOc3ccccc3C2)C5)cc1	> 100	> 100	> 100	> 100	> 100	> 100	> 100	> 100	> 100	> 100	> 100	–
CC(=O)O[C@H]1C(=O)[C@@]2(C)[C@H]([C@H](OC(=O)C3CCCCC3)[C@]3(O)C[C@H](OC(=O)[C@H](O)[C@@H](NC(=O)C4CCCCC4)C4CCCCC4)C(C)=C1C3(C)C)[C@]1(OC(C)=O)CO[C@@H]1C[C@@H]2O	6.6	8.02	8.78	3.33	0.803	4.96	0.476	1.96	3.67	0.766	1.66	–
CC1(C)C(=O)N=C(N)N1C(=O)OCc1ccccc1	> 100	> 100	> 100	> 100	> 100	> 100	> 100	> 100	> 100	> 100	> 100	–
CC(C)/C=N\n1c(N)c(C#N)c(C#N)c1C(C)C	69.5	> 100	> 100	> 100	> 100	98.1	> 100	47.2	75.2	52.5	> 100	–
N=C1C(=N)c2ccccc2-c2ccccc21	4.13	3.08	> 20	1.2	3.04	2.57	1.16	2.88	> 100	2.02	2.63	1.75
NC1CC(=O)c2cc(Br)sc21 (stereo unspecified)	> 100	> 100	> 100	> 100	> 100	> 100	> 100	> 100	> 100	> 100	> 100	–
O=C1/C(=C\c2cccc(Oc3ccccc3)c2)SC(c2ccccc2)N1c1ccc(Cl)cc1 (stereo unspecified)	> 100	> 100	> 63.6	> 100	> 100	> 100	> 100	> 100	41.9	52.6	> 100	–
CC(C)CCC[C@@H](C)C1CCC2[C@@H]3CCC4CC(CCC=C(c5cc(Cl)c(OC(=O)c6ccccc6)c(C(=O)O)c5)c5cc(Cl)c(OC(=O)c6ccccc6)c(C(=O)O)c5)CC[C@]4(C)C3CC[C@@]21C (stereo partly specified)	> 100	> 100	> 100	> 100	> 100	> 100	26.5	> 100	> 100	> 100	> 100	–
O=C(Nc1nc(C23CC4CC(CC(C4)C2)C3)cs1)c1cc2cc(Br)cc(Br)c2oc1=O	> 100	> 100	> 100	> 100	> 100	> 100	> 100	> 100	> 100	> 100	41.5	–
